≈ marks a conversion by molar mass, not a printed value.
Tests used:
Assay type in all cases: functional
Bacillus subtilis [1] = test: Antibacterial activity against penicillin-susceptible Bacillus subtilis ATCC 9372 assessed as inhibition of bacterial growth measured after 20 hrs by two-fold microdilution assay
Bacillus pumilus = test: Antibacterial activity against penicillin-susceptible Bacillus pumilus CMCC63202 assessed as inhibition of bacterial growth measured after 20 hrs by two-fold microdilution assay
Staphylococcus aureus [2] = test: Antibacterial activity against erythromycin-susceptible Staphylococcus aureus ATCC 25923 assessed as inhibition of bacterial growth measured after 20 hrs by two-fold microdilution assay
Streptococcus pyogenes [3] = test: Antibacterial activity against erythromycin-susceptible Streptococcus pyogenes assessed as inhibition of bacterial growth measured after 20 hrs by two-fold microdilution assay
Escherichia coli = test: Antibacterial activity against penicillin-susceptible Escherichia coli ATCC 25922 assessed as inhibition of bacterial growth measured after 20 hrs by two-fold microdilution assay
Pseudomonas aeruginosa = test: Antibacterial activity against penicillin-susceptible Pseudomonas aeruginosa ATCC 27853 assessed as inhibition of bacterial growth measured after 20 hrs by two-fold microdilution assay
Staphylococcus aureus [4] = test: Antibacterial activity against methicillin-resistant Staphylococcus aureus ATCC43300 assessed as inhibition of bacterial growth measured after 20 hrs by two-fold microdilution assay
Staphylococcus aureus [5] = test: Antibacterial activity against penicillin-resistant Staphylococcus aureus ATCC 31007 assessed as inhibition of bacterial growth measured after 20 hrs by two-fold microdilution assay
Staphylococcus aureus [6] = test: Antibacterial activity against clinical isolate Staphylococcus aureus C1 assessed as inhibition of bacterial growth measured after 20 hrs by two-fold microdilution assay
[7] = test system: Staphylococcus epidermidis; test: Antibacterial activity against penicillin-resistant Staphylococcus epidermidis assessed as inhibition of bacterial growth measured after 20 hrs by two-fold microdilution assay
Streptococcus pyogenes [8] = test: Antibacterial activity against erythromycin-resistant Streptococcus pyogenes assessed as inhibition of bacterial growth measured after 20 hrs by two-fold microdilution assay
Enterococcus faecalis [9] = test: Antibacterial activity against Vancomycin-susceptible Enterococcus faecalis ATCC 29212 assessed as inhibition of bacterial growth measured after 20 hrs by two-fold microdilution assay
Enterococcus faecium [10] = test: Antibacterial activity against Vancomycin-susceptible Enterococcus faecium ATCC 19434 assessed as inhibition of bacterial growth measured after 20 hrs by two-fold microdilution assay
Enterococcus faecium [11] = test: Antibacterial activity against Vancomycin-resistant Enterococcus faecium ATCC 51559 assessed as inhibition of bacterial growth measured after 20 hrs by two-fold microdilution assay
Enterococcus faecalis [12] = test: Antibacterial activity against Vancomycin-resistant Enterococcus faecalis ATCC 51299 assessed as inhibition of bacterial growth measured after 20 hrs by two-fold microdilution assay
Bacillus subtilis [13] = test: Bactericidal activity against penicillin-susceptible Bacillus subtilis ATCC 9372 assessed as inhibition of bacterial growth measured after 20 hrs by two-fold microdilution assay
Staphylococcus aureus [14] = test: Bactericidal activity against erythromycin-susceptible Staphylococcus aureus ATCC 25923 assessed as inhibition of bacterial growth measured after 20 hrs by two-fold microdilution assay

SMILES | MIC (Bacillus subtilis [1]) [µg/mL] | MIC (Bacillus pumilus) [µg/mL] | MIC (Staphylococcus aureus [2]) [µg/mL] | MIC (Streptococcus pyogenes [3]) [µg/mL] | MIC (Escherichia coli) [µg/mL] | MIC (Pseudomonas aeruginosa) [µg/mL] | MIC (Staphylococcus aureus [4]) [µg/mL] | MIC (Staphylococcus aureus [5]) [µg/mL] | MIC (Staphylococcus aureus [6]) [µg/mL] | MIC [7] [µg/mL] | MIC (Streptococcus pyogenes [8]) [µg/mL] | MIC (Enterococcus faecalis [9]) [µg/mL] | MIC (Enterococcus faecium [10]) [µg/mL] | MIC (Enterococcus faecium [11]) [µg/mL] | MIC (Enterococcus faecalis [12]) [µg/mL] | MBC (Bacillus subtilis [13]) [µg/mL] | MBC (Staphylococcus aureus [14]) [µg/mL]
COc1ccc2c[n+](C)c3ccc(-c4nc5ccccc5s4)cc3c2c1.[Cl-] | > 64 | > 64 | > 64 | > 64 | > 64 | > 64 | > 64 | > 64 | > 64 | > 64 | – | – | – | – | – | – | –
Cc1ccc2c[n+](C)c3ccc(-c4nc5ccccc5s4)cc3c2c1.[Cl-] | 1 | 4 | 16 | 4 | > 64 | > 64 | > 64 | > 64 | > 64 | > 64 | 4 | – | – | – | – | – | –
Cc1ccc2c[n+](C)c3ccc(-c4ccc5ccn(CC(C)C)c5c4)cc3c2c1.[Cl-] | 4 | 4 | 2 | 4 | > 64 | > 64 | 4 | 8 | 4 | 16 | 8 | – | – | – | – | – | –
O=C(O)c1cn(C2CC2)c2cc(N3CCNCC3)c(F)cc2c1=O [CIPROFLOXACIN] | 4 (≈ 12.1 µM) | – | 4 (≈ 12.1 µM) | – | – | – | – | > 64 | – | > 64 | – | 32 (≈ 96.6 µM) | > 64 | > 64 | > 64 | – | –
Cc1ccc2c(c1)c[n+](C)c1ccc(-c3nc4ccccc4s3)cc21.[Cl-] | 4 | 32 | 32 | 16 | > 64 | > 64 | > 64 | > 64 | > 64 | > 64 | 16 | – | – | – | – | – | –
Cc1cccc2c[n+](C)c3ccc(-c4nc5ccccc5s4)cc3c12.[Cl-] | 4 | 4 | 2 | 4 | > 64 | > 64 | 4 | 4 | 4 | 4 | 4 | 1 | 8 | 16 | 16 | > 64 | > 64
CCn1ccc2ccc(-c3ccc4c(c3)c3c(C)cccc3c[n+]4C)cc21.[Cl-] | 4 | 16 | 2 | 8 | > 64 | > 64 | 8 | 32 | 8 | 16 | 8 | – | – | – | – | – | –
COc1ccc2cc3[n+](cc2c1OC)CCc1cc2c(cc1-3)OCO2 [BERBERINE] | > 64 | > 64 | 64 | 64 | > 64 | > 64 | > 64 | > 64 | > 64 | > 64 | 64 | > 64 | > 64 | > 64 | > 64 | – | –
Cc1ccc2c[n+](C)c3ccc(-c4ccc5ccn(C)c5c4)cc3c2c1.[Cl-] | 2 | 16 | 4 | 4 | > 64 | > 64 | 32 | > 64 | 8 | > 64 | 4 | – | – | – | – | – | –
CCCCn1ccc2ccc(-c3ccc4c(c3)c3cc(C)ccc3c[n+]4C)cc21.[Cl-] | 4 | 8 | 2 | 8 | > 64 | > 64 | 8 | 8 | 4 | 16 | 16 | 8 | 8 | 8 | 16 | – | –
CCCCCn1ccc2ccc(-c3ccc4c(c3)c3cc(C)ccc3c[n+]4C)cc21.[Cl-] | 4 | 8 | 2 | 8 | > 64 | > 64 | 4 | 8 | 4 | 8 | 16 | – | – | – | – | – | –
Cc1cccc2c[n+](C)c3ccc(-c4ccc5ccn(Cc6ccc(OC(F)(F)F)cc6)c5c4)cc3c12.[Cl-] | 8 | 32 | 2 | 16 | > 64 | – | 16 | 8 | 8 | 8 | 16 | 8 | 4 | 4 | 8 | – | –
Cc1cccc2c[n+](C)c3ccc(-c4ccc5ccn(CC(C)C)c5c4)cc3c12.[Cl-] | 4 | 8 | 2 | 8 | > 64 | > 64 | 4 | 8 | 4 | 8 | 16 | – | – | – | – | – | –
Cc1cccc2c1c[n+](C)c1ccc(-c3nc4ccccc4s3)cc21.[Cl-] | > 64 | > 64 | 16 | 32 | > 64 | > 64 | > 64 | > 64 | > 64 | > 64 | 64 | – | – | – | – | – | –
Cc1cccc2c[n+](C)c3ccc(-c4ccc5ccn(Cc6ccc(C(F)(F)F)cc6)c5c4)cc3c12.[Cl-] | 2 | 4 | 2 | 16 | > 64 | > 64 | 8 | 8 | 8 | 4 | 16 | 16 | 8 | 8 | 8 | – | –
CN[C@H](CC(C)C)C(=O)N[C@H]1C(=O)N[C@@H](CC(N)=O)C(=O)N[C@H]2C(=O)N[C@H]3C(=O)N[C@H](C(=O)N[C@H](C(=O)O)c4cc(O)cc(O)c4-c4cc3ccc4O)[C@H](O)c3ccc(c(Cl)c3)Oc3cc2cc(c3O[C@@H]2O[C@H](CO)[C@@H](O)[C@H](O)[C@H]2O[C@H]2C[C@](C)(N)[C@H](O)[C@H](C)O2)Oc2ccc(cc2Cl)[C@H]1O [VANCOMYCIN] | – | – | – | – | – | – | – | – | – | – | – | 2 (≈ 1.38 µM) | – | > 64 | > 64 | – | –
COc1ccc2c(c1)c[n+](C)c1ccc(-c3nc4ccccc4s3)cc21.[Cl-] | > 64 | > 64 | > 64 | > 64 | > 64 | > 64 | > 64 | > 64 | > 64 | > 64 | – | – | – | – | – | – | –
CCCn1ccc2ccc(-c3ccc4c(c3)c3cc(C)ccc3c[n+]4C)cc21.[Cl-] | 64 | > 64 | 16 | > 64 | > 64 | > 64 | 64 | > 64 | 32 | > 64 | 32 | – | – | – | – | – | –
CCCCCn1ccc2ccc(-c3ccc4c(c3)c3c(C)cccc3c[n+]4C)cc21.[Cl-] | 2 | 4 | 2 | 16 | > 64 | > 64 | 2 | 4 | 2 | 8 | 16 | – | – | – | – | – | –
Cc1cccc2c[n+](C)c3ccc(-c4ccc5ccn(C)c5c4)cc3c12.[Cl-] | 1 | 8 | 2 | 8 | > 64 | > 64 | 8 | 32 | 8 | 16 | 4 | – | – | – | – | – | –
C[n+]1cc2ccccc2c2cc(-c3nc4ccccc4s3)ccc21.[Cl-] | > 64 | > 64 | > 64 | > 64 | > 64 | > 64 | > 64 | > 64 | > 64 | > 64 | – | – | – | – | – | – | –

Reference: ChEMBL document CHEMBL4828726, “Modification of 5-methylphenanthridium from benzothiazoles to indoles as potent FtsZ inhibitors: Broadening the antibacterial spectrum toward vancomycin-resistant enterococci” (Eur J Med Chem, 2021)
